The source of these data is ChEMBL document CHEMBL1139388, “Crystal structure of the Homo sapiens kynureninase-3-hydroxyhippuric acid inhibitor complex: insights into the molecular basis of kynureninase substrate specificity” (J Med Chem, 2009).

In this experiment the target is T1, Kynureninase (Homo sapiens) (UniProt Q16719).
T1 sequence (whole entry): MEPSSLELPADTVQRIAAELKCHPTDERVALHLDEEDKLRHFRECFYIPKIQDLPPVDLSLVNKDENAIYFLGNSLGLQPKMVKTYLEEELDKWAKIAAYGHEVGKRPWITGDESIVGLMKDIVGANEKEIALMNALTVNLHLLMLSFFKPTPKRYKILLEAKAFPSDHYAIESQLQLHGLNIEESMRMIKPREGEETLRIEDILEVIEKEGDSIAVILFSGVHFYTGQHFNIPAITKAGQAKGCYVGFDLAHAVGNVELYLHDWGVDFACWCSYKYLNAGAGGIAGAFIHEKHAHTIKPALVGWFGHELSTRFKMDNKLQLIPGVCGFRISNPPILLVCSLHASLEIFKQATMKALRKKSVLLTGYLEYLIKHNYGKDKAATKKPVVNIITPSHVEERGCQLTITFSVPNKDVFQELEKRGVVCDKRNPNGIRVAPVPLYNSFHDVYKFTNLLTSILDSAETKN
As to the kind of experiment: Inhibition of human kynureninase at 1 mM.

Active and inactive are the calls of the source. The calls are words filed in the database; no cut-off is given here.

For `O=C(O)CNC(=O)c1ccccc1`, the result was inactive.

In the case of `Nc1c(O)cccc1C(=O)NCC(=O)O`, the result was inactive.
